Results reported in ChEMBL document CHEMBL2176918, “Design and optimization of pyrazinecarboxamide-based inhibitors of diacylglycerol acyltransferase 1 (DGAT1) leading to a clinical candidate dimethylpyrazinecarboxamide phenylcyclohexylacetic acid (AZD7687)” (J Med Chem, 2012).
Values after ≈ are worked out from the molar mass of the structure shown.

How the values were obtained:
[1] = Lipophilicity, log D of the compound at pH 7.4 by chromatographic method; settings: buffer
[2] = molecular target: T1, Diacylglycerol O-acyltransferase 1 (Homo sapiens, UniProt O75907)
T1 sequence (O75907 whole entry): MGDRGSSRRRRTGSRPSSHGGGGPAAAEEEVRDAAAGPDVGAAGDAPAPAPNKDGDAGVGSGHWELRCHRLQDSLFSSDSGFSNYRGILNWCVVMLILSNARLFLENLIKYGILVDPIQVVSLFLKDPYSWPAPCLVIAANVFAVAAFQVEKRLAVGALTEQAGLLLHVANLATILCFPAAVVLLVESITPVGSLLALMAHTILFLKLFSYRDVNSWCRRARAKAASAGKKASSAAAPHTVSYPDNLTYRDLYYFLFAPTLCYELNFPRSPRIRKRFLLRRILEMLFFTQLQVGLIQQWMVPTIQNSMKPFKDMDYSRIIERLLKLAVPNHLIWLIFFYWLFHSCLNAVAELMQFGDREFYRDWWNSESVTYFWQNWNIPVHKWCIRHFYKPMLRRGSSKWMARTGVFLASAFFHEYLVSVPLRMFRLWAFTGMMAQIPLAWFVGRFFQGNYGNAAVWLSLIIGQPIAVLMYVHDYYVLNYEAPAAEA
Description: Inhibition of human recombinant DGAT1 expressed in Sf9 cells by liquid scintillography

[3] = Apparent permeability from apical to basolateral side in human Caco2 cells at pH 7.4; format: ADME, cell-based; settings: Caco-2, pH 7.4
[4] = Solubility in 0.1 M phosphate buffer at pH 7.4 at 25 degC incubated for 24 hrs
[5] = Fraction unbound in human plasma at 37 degC by LC-UV/MS method based equilibrium dialysis method
[6] = Intrinsic clearance in rat hepatocytes assessed as parent compound disappearance at 1 uM per 10^6 cells; format: ADME, cell-based, Hepatocyte; settings: read-out: CLH
[7] = Apparent permeability from apical to basolateral side in MDCK cells at pH 7.4; settings: dog
[8] = Oral bioavailability in rat; settings: in vivo
[9] = Half life in Han-Wistar rat at 2.54 to 5.4 uM/kg, po; format: ADME, organism-based; settings: in vivo
[10] = Octanol/water partition coefficient, log D of the compound at pH 7.4; format: physicochemical
[11] = molecular target: T2, Sterol O-acyltransferase 1 (Homo sapiens, UniProt P35610)
T2 sequence (P35610 whole entry): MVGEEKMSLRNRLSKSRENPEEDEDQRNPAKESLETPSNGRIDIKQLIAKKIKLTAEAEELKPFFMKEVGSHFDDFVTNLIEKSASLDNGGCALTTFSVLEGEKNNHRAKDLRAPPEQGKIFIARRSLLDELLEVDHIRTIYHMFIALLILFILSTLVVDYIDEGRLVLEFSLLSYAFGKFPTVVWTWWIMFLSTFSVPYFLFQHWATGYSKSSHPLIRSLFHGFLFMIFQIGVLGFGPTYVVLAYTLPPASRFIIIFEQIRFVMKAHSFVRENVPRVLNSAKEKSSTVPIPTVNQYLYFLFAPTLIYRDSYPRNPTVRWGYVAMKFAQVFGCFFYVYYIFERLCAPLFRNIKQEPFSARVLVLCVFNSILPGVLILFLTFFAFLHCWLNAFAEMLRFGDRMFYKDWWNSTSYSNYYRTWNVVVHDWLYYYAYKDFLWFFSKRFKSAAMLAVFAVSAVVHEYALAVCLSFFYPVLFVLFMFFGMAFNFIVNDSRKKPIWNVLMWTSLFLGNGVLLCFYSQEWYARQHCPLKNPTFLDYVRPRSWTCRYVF
Description: Inhibition of human ACAT1 by liquid scintillography

Row | SMILES | chromatographic logD [1] | IC50 [2] [µM] | Papp A→B [3] [nm/s] | solubility at 24 h [4] [µM] | hepatocyte CLint at 1 µM [6] [µL/min/1e6 cells] | further results
1 | NC(=O)c1nc(-c2ccc([C@H]3CC[C@H](CC(=O)O)CC3)cc2)cnc1N | 0.5 | > 10 |  |  |  | 
2 | CCc1nc(C)c(C(N)=O)nc1-c1ccc([C@H]2CC[C@H](CC(=O)O)CC2)cc1 | 1.7 | > 9.1 |  |  |  | 
3 | Cc1nc(C(C)C)c(-c2ccc([C@H]3CC[C@H](CC(=O)O)CC3)cc2)nc1C(N)=O | 2.6 | > 10 |  |  |  | 
4 | Cc1nc(-c2ccccc2)c(-c2ccc([C@H]3CC[C@H](CC(=O)O)CC3)cc2)nc1C(N)=O | 2.5 | > 10 |  |  |  | 
5 | Cc1nc(C)c(-c2ccc([C@H]3CC[C@H](CCO)CC3)cc2)nc1C(N)=O | 3.1 | 0.69 | 580 | 4 (≈ 1.41 µg/mL) |  | 
6 | NC(=O)c1cncc(-c2ccc([C@H]3CC[C@H](CCO)CC3)cc2)n1 | 2.3 | 1.2 | 380 | 3 (≈ 0.976 µg/mL) | 36 | fraction unbound [5]: 0.028
7 | Cc1nc(C)c(-c2ccc([C@H]3CC[C@H](CC(N)=O)CC3)cc2)nc1C(N)=O | 1.7 |  |  |  | 77 | fraction unbound [5]: 0.13; Papp A→B [7]: 180 nm/s
8 | NC(=O)C[C@H]1CC[C@H](c2ccc(-c3cncc(C(N)=O)n3)cc2)CC1 | 0.9 | 1.9 | 130 | < 1 |  | 
9 | Cc1nc(C)c(-c2ccc([C@H]3CC[C@H](CC(=O)NC(C)(C)C(=O)O)CC3)cc2)nc1C(N)=O | 0.7 | 0.11 | 7.1 | 86 (≈ 38.9 µg/mL) |  | fraction unbound [5]: 0.078; bioavailability [8]: 19%
10 | CC(C)(NC(=O)C[C@H]1CC[C@H](c2ccc(-c3cncc(C(N)=O)n3)cc2)CC1)C(=O)O | < 0.1 | 1.1 |  | > 100 | < 2 | 
11 | Cc1nc(C)c(-c2ccc([C@H]3CC[C@H](CC(=O)NS(C)(=O)=O)CC3)cc2)nc1C(N)=O | 0.9 | 0.1 | 20 | 100 (≈ 44.5 µg/mL) | 17 | 
12 | Cc1nc(C)c(-c2ccc([C@H]3CC[C@H](Cc4nnn[nH]4)CC3)cc2)nc1C(N)=O |  |  |  |  | < 2 | fraction unbound [5]: 0.009; half-life [9]: 9 h
13 | Cc1nc(C)c(-c2ccc([C@H]3CC[C@H](CCC(=O)O)CC3)cc2)nc1C(N)=O |  |  |  |  |  | logD [10]: 1.6
14 | Cc1nc(C)c(-c2ccc([C@H]3CC[C@H](CC(=O)O)CC3)c(F)c2)nc1C(N)=O | 1.3 |  |  |  |  | 
15 | Cc1nc(C)c(-c2ccc([C@H]3CC[C@H](CC(=O)O)CC3)c(Cl)c2)nc1C(N)=O | 1.8 |  |  |  |  | 
16 | Cc1nc(C)c(-c2ccc([C@H]3CC[C@@H](CC(=O)O)CC3)cc2)nc1C(N)=O |  | 0.43 |  |  |  | 
17 | Cc1nc(C)c(-c2ccc([C@H]3CC[C@@H](CC(=O)O)CC3)c(F)c2)nc1C(N)=O | 1.2 |  |  |  |  | 
18 | Cc1nc(C)c(-c2ccc([C@H]3CC[C@@H](CC(=O)O)CC3)c(Cl)c2)nc1C(N)=O | 1.5 |  |  |  |  | 
19 | Cc1nc(C)c(-c2ccc3c(c2)CC[C@]32CC[C@@H](CC(=O)O)CC2)nc1C(N)=O |  | 0.03 |  | 562 (≈ 221 µg/mL) | < 2 | fraction unbound [5]: 0.013; half-life [9]: 7.5 h; IC50 [11]: 2.4 µM; Papp A→B [7]: 120 nm/s
20 | Cc1ncc(C(N)=O)nc1-c1ccc([C@H]2CC[C@H](C(=O)O)CC2)cc1 | 0.22 |  |  | 1200 (≈ 407 µg/mL) | 72 | 
21 | Cc1ncc(C(N)=O)nc1-c1ccc([C@H]2CC[C@H](CC(=O)O)CC2)cc1 | 0.3 | 0.31 | 350 | > 100 | < 6 | IC50 [11]: > 33 µM
22 | NC(=O)c1cncc(-c2ccc([C@H]3CC[C@H](CC(=O)O)CC3)cc2)n1 | < 0.1 | 1.9 | 290 |  |  | fraction unbound [5]: 0.035; IC50 [11]: > 100 µM; bioavailability [8]: 62%
23 | Cc1ncc(-c2ccc([C@H]3CC[C@H](CC(=O)O)CC3)cc2)nc1C(N)=O |  |  |  |  |  | logD [10]: 1
